Measurements from patent publication US20020010210A1, “PHARMACEUTICAL PREPARATION AND METHOD FOR TREATING CANCER” (priority 1997, published 2002).

Key:
[1] = test system: spontaneous breast cancer rat cells (SST-2); assay: Lung metastasis of implanted SST-2 cells in SHR rats (Example 3); format: in vivo; details: 35 days after implantation; for Number of Metastasis Colonies (average), Peroral Administration: 1 mg/rat perorally from day of implantation to day 34; for Number of Metastasis Colonies (average), Subcutaneous Injection: 1 mg/rat subcutaneous injection from day of implantation to day 34
Procedure: 1×100,000 spontaneous breast cancer rat cells (SST-2) were subcutaneously implanted into the back of a rat (SHR rat) (5 rats per group) suffering from spontaneous hypertension. After 35 days, the rats were sacrificed, and the lung weight and the number of colonies formed were measured to examine the degree of metastasis of SST-2 to the lung. The compounds shown in Tables 3 and 4 each was administered perorally or through subcutaneous injection in a dose of 1 mg/rat over the period from the day of implantation to 34 days after implantation. The number of colonies formed was compared with that in the control group not subjected to any treatment, to examine metastasis to the lung.

[2] = test system: bovine aortic endothelial BAE-2 cells; assay: Intracellular ascorbic acid cumulative amount in BAE-2 cells (Example 2); format: cell-based; details: 5 μM in culturing medium, cultured 20 hours
Procedure: About 6×10^5 bovine aortic endothelial BAE-2 cells (available from Hiroshima Prefecture University) were sowed on a 60 mmφ plate and cultured in a minimum essential culturing medium containing 20% dialyzed bovine fetus serum (available from Moregate) for 2 hours. After displacing with the same culturing medium containing 5 μM (in the case of magnesium ascorbic acid-2-phosphate, 50 μM) of ascorbic acid or a derivative thereof, the cells were further cultured for 20 hours.

[3] = test system: normal human adult mamma epidermis keratinocyte; assay: Intracellular ascorbic acid cumulative amount in keratinocytes (Example 1); format: cell-based; details: addition amount 2 μM, cultured 20 hours; difference to culture without addition
Procedure: About 6×10^5 cells of a normal human adult mamma epidermis keratinocyte (available from Kurashiki Boseki KK) were sowed on a 60 mm plate and cultured in a culturing medium (manufactured by Krashiki Boseki KK) for the increase of serum-free epidermis keratinocyte for 2 hours. After displacing with the same culturing medium having added thereto from 2 to 50 μM of ascorbic acid or a derivative thereof, the cells were further cultured for 20 hours. The cells were collected by trypsin treatment and the number of cells was counted using a Coulter Counter Model DN (trade name, manufactured by Coulter Electronics). The cells thus collected were washed with Hank's equilibrium salt solution, pulverized in an ultrasonic homgenizer, filtered through a Mol-cut II (UFP1LCC) (trade name, produced by Nippon Milipore KK), analyzed by HPLC using Shodex ODSpak F411A column (trade name, produced by Showa Denko KK), and the amount of ascorbic acid and derivatives thereof were measured to determine the intracellular cumulative amount.
As a control, culturing was performed in the same manner as above except for not adding ascorbic acid or a derivative thereof, and the amount of intracellular ascorbic acid was quantitatively determined.

Compound | Number of Metastasis Colonies (average), Peroral Administration [1] | Number of Metastasis Colonies (average), Subcutaneous Injection [1] | Intracellular Cumulative Amount [2] [Pmole/cell] | Intracellular Cumulative Amount [3] [Pmole/cell]
O=C1O[C@H]([C@@H](O)CO)C(O)=C1OC1O[C@H](CO)[C@@H](O)[C@H](O)[C@H]1O (stereo partly drawn) [2-O-D-Glucopyranosil-L-ascorbic acid] | 87.2 | 90.6 | <0.0003 | 
CC(CCC(C(=O)OC1=C(O)C(=O)O[C@@H]1[C@@H]1COC(c2ccccc2)O1)C(C)CC(C)(C)C)CC(C)(C)C (some centres unmarked) [5,6-O-Benzylidene-3-O-[5,7,7-trimethyl-2-(1,3,3-timethylbutyl)]octanoylascorbic acid] | 87.4 | 89.6 | 0.0008 | 
CCCCC/C=C\C/C=C\C/C=C\C/C=C\CCCC(=O)OC[C@H](O)[C@H]1OC(=O)C(OP(=O)(O)O)=C1O [L-Ascorbic acid 2-phosphate-6-arachidonate] | 31.4 | 1.2 | 0.0068 | 
O=C1O[C@H]([C@@H](O)COC(=O)c2ccccc2)C(O)=C1OP(=O)(O)O [L-Ascorbic acid 2-phosphate-6-benzoate] | 80.0 | 64.4 | 0.0025 | 
CCCCCCCCCCCC(=O)OC[C@H](O)[C@H]1OC(=O)C(OP(=O)(O)O)=C1O [L-Ascorbic acid 2-phosphate-6-laurate] | 48.0 | 26.8 | 0.0042 | 
CCCCCCCC/C=C\CCCCCCCC(=O)OC[C@H](O)[C@H]1OC(=O)C(OP(=O)(O)O)=C1O [L-Ascorbic acid 2-phosphate-6-oleate] | 29.4 | 2.8 | 0.0055 | 
CCCCCCCCCCCCCCCC(=O)OC[C@H](O)[C@H]1OC(=O)C(OP(=O)(O)O)=C1O [L-Ascorbic acid 2-phosphate-6-palmitate] | 34.2 | 2.4 | 0.0072 | 
CCCCCCCCCCCCCCCCCC(=O)OC[C@H](O)[C@H]1OC(=O)C(OP(=O)(O)O)=C1O [L-Ascorbic acid 2-phosphate-6-stearate] | 14.2 | 8.2 | 0.0034 | 
O=C1O[C@H]([C@@H]2COC(c3ccccc3)O2)C(O)=C1O (stereo partly drawn) [L-Ascorbic acid-5,6-O-benzylidene] | 85.8 | 84.2 | 0.0012 | 
CCCCCCCCCCCCCCCC(=O)OC[C@H](O)[C@H]1OC(=O)C(O)=C1O [L-Ascorbic acid-6-palmitate] | 85.4 | 83.0 |  | 
O=C1O[C@H]([C@@H](O)CO)C(O)=C1O [L-Ascorbic acid] | 90.8 | 88.8 |  | 
O=C1O[C@H]([C@@H](O)CO)C(O)=C1OP(=O)([O-])[O-].[Mg+2] [Magnesium L-ascorbic acid-2-phosphate] | 89.4 | 86.8 |  | 
O=C1OC(C2COC(c3cccc([N+](=O)[O-])c3)O2)C([O-])=C1O.[Na+] [Sodium 5,6-(3-nitro)benzylidene-L-ascorbate] | 88.6 | 84.2 | 0.0007 | 
O=C1O[C@H]([C@@H](O)CO)C(O)=C1OS(=O)(=O)[O-].[Na+] [Sodium L-ascorbic acid-2-sulfate] | 86.2 | 85.4 |  | 
Magnesium L-ascorbic acid 2-phosphate-6-laurate |  |  | 0.0070 | 0.0033
Sodium L-ascorbic acid 2-phosphate-6-palmitate | 30.6 | 1.6 | 0.0068 | 0.0040
